Results taken from PubChem BioAssay (NCI).
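In this assay, cells in 96-well plates receive the compound at five concentrations for 48 hours. Endpoints are linearly interpolated between the surrounding concentrations. TGI: concentration producing complete growth inhibition.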

Legend:
Test in all cases: inhibition of tumour cell growth, NCI panel, 48 h
RPMI-8226 leukemia = tested on: RPMI-8226 leukemia
NCI-H23 lung = tested on: NCI-H23 lung
KM12 colon = tested on: KM12 colon
HOP-92 NSCLC = tested on: HOP-92 NSCLC
SNB-19 CNS = tested on: SNB-19 CNS
HCC-2998 colon = tested on: HCC-2998 colon
M14 melanoma = tested on: M14 melanoma
HS 578T breast = tested on: HS 578T breast
OVCAR-8 ovarian = tested on: OVCAR-8 ovarian
UACC-62 melanoma = tested on: UACC-62 melanoma
NCI-H226 lung = tested on: NCI-H226 lung
MOLT-4 leukemia = tested on: MOLT-4 leukemia
SK-MEL-2 melanoma = tested on: SK-MEL-2 melanoma
A549 NSCLC = tested on: A549 NSCLC
SF-268 CNS = tested on: SF-268 CNS
U251 CNS = tested on: U251 CNS
PC-3 prostate = tested on: PC-3 prostate
MDA-MB-435 = tested on: MDA-MB-435
NCI/ADR-RES ovarian = tested on: NCI/ADR-RES ovarian
IGROV1 ovarian = tested on: IGROV1 ovarian
SN12C renal = tested on: SN12C renal
BT-549 breast = tested on: BT-549 breast
SK-MEL-5 melanoma = tested on: SK-MEL-5 melanoma
EKVX NSCLC = tested on: EKVX NSCLC
MALME-3M melanoma = tested on: MALME-3M melanoma
CAKI-1 renal = tested on: CAKI-1 renal
SNB-75 CNS = tested on: SNB-75 CNS
OVCAR-5 ovarian = tested on: OVCAR-5 ovarian
SK-OV-3 ovarian = tested on: SK-OV-3 ovarian
T-47D breast = tested on: T-47D breast
SF-539 CNS = tested on: SF-539 CNS
OVCAR-3 ovarian = tested on: OVCAR-3 ovarian
HT29 colon = tested on: HT29 colon
HL-60(TB) leukemia = tested on: HL-60(TB) leukemia
HCT-116 colon = tested on: HCT-116 colon
TK-10 renal = tested on: TK-10 renal
OVCAR-4 ovarian = tested on: OVCAR-4 ovarian
HCT-15 colon = tested on: HCT-15 colon
UACC-257 melanoma = tested on: UACC-257 melanoma
786-0 renal = tested on: 786-0 renal
MCF7 breast = tested on: MCF7 breast
HOP-62 NSCLC = tested on: HOP-62 NSCLC
MDA-N = tested on: MDA-N
SK-MEL-28 melanoma = tested on: SK-MEL-28 melanoma
MDA-MB-231 breast = tested on: MDA-MB-231 breast
SF-295 CNS = tested on: SF-295 CNS
ACHN renal = tested on: ACHN renal
RXF 393 renal = tested on: RXF 393 renal
CCRF-CEM leukemia = tested on: CCRF-CEM leukemia
SR leukemia = tested on: SR leukemia
NCI-H460 lung = tested on: NCI-H460 lung
DU-145 prostate = tested on: DU-145 prostate
K-562 leukemia = tested on: K-562 leukemia
COLO 205 colon = tested on: COLO 205 colon
NCI-H522 lung = tested on: NCI-H522 lung
UO-31 renal = tested on: UO-31 renal
A498 renal = tested on: A498 renal
SW-620 colon = tested on: SW-620 colon
LOX IMVI melanoma = tested on: LOX IMVI melanoma

Measured: TGI

CC(C)(O)C1CC[C@]2(C)CC[C@]3(C)[C@H](CC[C@@H]4[C@@]5(C)CC[C@H](O)C(C)(C)[C@@H]5CC[C@]43C)[C@@H]12 (stereo partly drawn)
44.1 µM: HOP-92 NSCLC
66.2 µM: T-47D breast
92.2 µM: COLO 205 colon
84.3 µM: HOP-62 NSCLC
50.2 µM: UACC-257 melanoma
49.3 µM: SK-OV-3 ovarian
78.1 µM: 786-0 renal
57.6 µM: SF-295 CNS
78.3 µM: OVCAR-4 ovarian
50.7 µM: OVCAR-3 ovarian
45.6 µM: CAKI-1 renal
59.4 µM: HCT-116 colon
44.5 µM: EKVX NSCLC
95.4 µM: M14 melanoma
60.9 µM: BT-549 breast
73.2 µM: NCI-H522 lung
68.1 µM: HS 578T breast
57.7 µM: MALME-3M melanoma
82.4 µM: NCI/ADR-RES ovarian
45.7 µM: SNB-75 CNS
62.5 µM: SK-MEL-2 melanoma
53.3 µM: TK-10 renal
67.7 µM: SK-MEL-28 melanoma
89.3 µM: KM12 colon
51.9 µM: HCC-2998 colon
71.3 µM: ACHN renal
55.4 µM: SF-539 CNS
85.8 µM: IGROV1 ovarian
57.9 µM: DU-145 prostate
75.9 µM: OVCAR-5 ovarian
not listed: A498 renal | SW-620 colon | LOX IMVI melanoma
> 100 µM: all other assays above

COCC1OC(OC2OCC3OC4(OCC(O)(C(C)OC)C5OCOC54)OC3C2OC)C(OC)C(O)C1OC1OC(C)C(OC)C(OC2OC(C)C3OC4(CC(O)C(OC5CC(OC6CC(C)([N+](=O)[O-])C(OC)C(C)O6)C(OC(=O)c6c(C)c(Cl)c(O)c(Cl)c6OC)C(C)O5)C(C)O4)OC3(C)C2O)C1O (stereo not drawn)
not listed: MALME-3M melanoma | MCF7 breast
> 100 µM: all other assays above
